Test results as given in patent US10208007B2, “Use of strigolactones and strigolactone analogs for treating proliferative conditions” (The State of Israel, Ministry of Agriculture & Rural …, priority 2011, dated 2019).

Tests used:
[1] = system: MCF-7 cells; assay: Stability in aqueous solution (media, activity on MCF-7 by XTT); assay type: physicochemical, human; settings: stored at 4° C. for 3 days
Procedure: To assess strigolactone analogs stability in aqueous solution, each strigolactone analog was diluted to the desired concentration in media and stored at 4° C. for 3 days, at which time the strigolactone analog containing media was overlayed onto MCF-7 cells seeded into 96 well plates in phenol free DMEM supplemented with 5% charcoal stripped serum. After 3 days growth and viability was assessed (XTT, ATCC) and results compared to cells treated with freshly diluted strigolactone analog (FIG. 15) (absorbance readings presented as % of controls. Average+SD). […] For this reason all strigolactone analogs were diluted fresh from acetone stocks into media to desired concentrations and overlayed onto cells within 1 hour. Where necessary, media was refreshed every 3 days.

[2] = system: HCT116 cells; assay: FACS analysis of phospho-Ser10 Histone-H3; assay type: cell-based, human; settings: 2.7% in vehicle controls
Procedure: Adherent cells were trypsinyzed, washed twice with PBS and filtered through a […] cell sieve. DNA content was assessed by flow cytometry. Cells were seeded at densities of 1.5×10^5 cells (MDA-MB-231, MDA-MB-436), or 4×10^5 cells (MCF-7 and MCF10A), or 2×10^5 cells (SW480, HT-29), or 5×10^5 cells (HCT116), per well in DMEM with 10% FBS in 6-well plate culture dishes. […] After 48 hours, cells were washed twice with PBS (pH 7.4), centrifuged at 360 g for 10 minutes at 4° C., and fixed in chilled ethanol (70%; v/v in PBS) with gentle vortex mixing. To determine their DNA contents, the cells were stained with 40 μg/ml propidium iodide (hereinafter PI) and analyzed using a FACSCalibur flow cytometer and CellQuest analysis software (Becton Dickinson, San Jose, Calif.). Where phosphoHistone-H3 staining was carried out, cells were incubated with polyclonal antibody against phosphoHistone H3 and then with secondary Goat anti-rabbit IgG-conjugated to FITC prior to PI staining.
Chromosome condensation at mitosis is accompanied by phosphorylation of histone H3. Accordingly, in order to determine if cells were arresting at G2 or M phase, HCT116 cells were analyzed for pS10 Histone H3 following strigolactone analogs exposure. […] To further quantify whether the growth inhibition observed in-vitro following strigolactone treatment was due in part to apoptosis, HCT116 cells were dual stained with Annexin V and PI (Prodidium Iodide). Annexin V staining indicate the inversion of the inner leaflet of the plasma membrane an early event of apoptosis. Late apoptosis is characterized by loss of membrane integrity and cells become permeable to PI. […] Cells were incubated for 48 hours and then co-stained with annexin-V and PI (FIG. 12F). Following treatment with 10 ppm and 15 ppm MEB-55, the percentage of late apoptotic cell increased from 3.6% to 62% and 85% respectively (FIG. 12F, lower panel). […] Dual Annexin V/PI staining analysis was also carried out on two other colon cancer cell lines, (SW480, HT29) following strigolactone treatment. Increased apoptosis was also observed in these lines following MEB-55 treatment in a dose dependent manner (FIG. 12D).

[3] = system: pAKT; assay: Immunoblot with densitometric quantification; assay type: cell-based, human
Procedure: Protein concentration was determined using the BCA Protein Assay (Pierce), and 20-50 μg of lysate were separated in a 4-12% SDS-PAGE gel. After transfer, membranes were blocked for 15-30 min at room temperature in 5% BSA (Sigma) in Tris-buffered saline containing 0.1% Tween-20. Primary antibody was incubated for either 1.5 hours at room temperature or overnight at 4° C. Secondary antibody was incubated for 30-45 min at room temperature, and proteins were visualized with West Pico Stable (Pierce). All antibodies were used at 1:1000 dilution unless otherwise stated. pT308AKT, AKT, pT180/Y182, pT183/Y185 P38MAPK, pP38MAPK, pT202/Y204 pERK1/2, ERK1, pT183/Y185, pJNK1/2, JNK1, pT71ATF2, pT581MSK1, pT14 Cdc2, Cdc2, pT68Chk2 (cell signaling), pT334MAPKAPK, pS82HSP27 (Cell Signaling Technology, Danvers, Mass.), α-tubulin (Biomarkers, 1:50,000), Cyclin B1 (Santa Cruz Biotechnologies) and horseradish peroxidase-conjugated anti-rabbit IgG and anti-mouse IgG (1:5,000, Pierce).
Densitometric quantifications were carried out using ImageJ software (NIMH).
[…] The family of MAPK enzymes plays a pivotal role in cell growth, survival and cellular stress responses. […]

## CC1=CC(O/C=C2\Cc3c(n(C)c4ccccc34)C2=O)OC1=O (racemic) [EG-5, (±) (2E)-4-methyl-2-(4-methyl-5-oxo-2,5-dihydrofuran-2-yloxymethylene)-1,4-dihydro-2H-cyclopenta[b]indol-3-one]
[1]
  Stability in aqueous solution: activity versus freshly diluted analog: completely failed to inhibit MCF-7 growth

## CC1=CC(O/C=C2\Cc3c(n(C)c4cc(-c5cccs5)ccc34)C2=O)OC1=O (racemic) [MEB-55, (±) 2E-4-methyl-2-(4-methyl-5-oxo-2,5-dihydrofuran-2-yloxymethylene)-6-thiophen-2-yl-1,4-dihydro-2H-cyclopenta[b]indol-3-one]
[2]; 5 ppm
  Percentage of cells staining positive for pHistone H3: 1.45%
[2]; 7.5 ppm
  Percentage of cells staining positive for pHistone H3: 0.9%
[3]; DU145, 8 hours
  pAKT levels decrease: 6 fold
[3]; DU145, 24 hours
  pAKT levels: undetectable levels

## CC1=CC(O/C=C2/C(=O)c3c(c4cc(-c5cccs5)ccc4n3C)C2C)OC1=O (stereo not shown) [ST-357, (2E)-1,4-dimethyl-2-((4-methyl-5-oxo-2,5-dihydrofuran-2-yloxy)methylene)-7-(thiophen-2-yl)-1,2-dihydrocyclopenta[b]indol-3(4H)-one]
[2]; 5 ppm
  Percentage of cells staining positive for pHistone H3: 0.7%
[2]; 7.5 ppm
  Percentage of cells staining positive for pHistone H3: 0.3%
